In patent US20230339882A1, “SHP2 INHIBITOR AND COMPOSITION AND APPLICATION THEREOF” (Betta Pharmaceuticals Co., Ltd., priority 2020, published 2023):

Experiments:
[1] = target: SHP2 (Homo sapiens (Human), UniProt Q06124); experiment: SHP2 allosteric inhibitory enzyme activity assay (DiFMUP fluorescence); assay type: biochemical; details: read-out: SHP2 enzymatic activity IC50
Outline: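 Human SHP2 (0.2 ng) preincubated 1 h at room temperature with 25 µM activating peptide IRS1_pY1172(dPEG8)pY1222 and compound (10-point series from 10 µM) in HEPES/NaCl/KCl/BRIJ-35/EDTA/DTT buffer. DiFMUP then added for 1 h; fluorescence at ex 340/em 450 nm, normalized to no-enzyme and no-inhibitor controls, IC50 from variable-slope fit.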

[2] = test system: leukemia cells MV-4-11; experiment: Cell proliferation assay, CELL TITER-GLO (CTG) luminescence, MV-4-11; assay type: cell-based
Outline: (§1)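 NCI-H358 (2000 cells/well, ultra-low-attachment plates) and MV-4-11 cells were dosed 24 h after seeding at 1000 nM down to 0.1524 nM (3-fold steps). Viable-cell ATP was read by CellTiter-Glo luminescence after 96 h for NCI-H358 and 120 h for MV-4-11. IC50 came from a variable-slope fit of inhibition versus the 0 nM control.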

[3] = test system: lung cancer cells NCI-H358; experiment: Cell proliferation assay, CELL TITER-GLO (CTG) luminescence, NCI-H358; assay type: cell-based; details: cultured for 96 hrs
Outline: as §1

[4] = In vitro metabolic stability in liver microsomes, human; assay type: in vitro ADME; details: for microsomal CLint at 2 µM: pH 7.3, read-out: CLint (µL/min/mg protein) human
Description: (§2) Example D: In Vitro Metabolic Stability of Human and Rat Liver Microsomes Test Buffer Preparation
(§3) Dissolve 1900 mg of MgCl2 in 400 mL of ultrapure water.
(§4) Dissolve 17.42 g K2HPO4 and 13.65 g KH2PO4 into 1000 mL of ultrapure water, respectively. Mix a certain proportion of K2HPO4 and KH2PO4 to adjust the pH to 7.30 ± 0.10.
(§5) Prepare a solution of 10 ng/mL labetalol and 10 ng/mL glyburide in acetonitrile and store at 4° C.
(§6) Prepare 10 mM verapamil (positive control) and test article stock solutions in DMSO. Then, with MeOH/ACN/H2O solution (1:1:2 by volume), diluted to 50 µM and 200 µM working solutions, respectively.
(§7) experiment procedure: • 1) Add 40 µL MgCl2 and 306 µL PBS to 96 wells (set blank control group, positive control group, test compound sample group, and negative control group at the same time) • 2) Add 4 µL of compound working solution to each well (4 µL of PBS buffer for blank group) (Note: the final concentration of DMSO volume in the system is ≤ 0.5%) • 3) Add 10 µL of liver microsomes (concentration: 20 mg/mL) to each well, mix well, and pre-incubate at 37° C. for 10 minutes. • 4) Add 40 µL of 10 mM NADPH working solution to each well to start the reaction (add equal volume of PBS buffer for blank control group and negative control group respectively), the total reaction volume is 400 µL. • 5) Take out 50 µL samples from the above reaction solution at 0, 5, 15, and 45 minutes, and add 400 µL of reaction stop solution to stop the reaction • 6) Shake the sample after the termination of the reaction on a shaker for 5 minutes. • 7) Centrifuge the sample at 3200 rcf for 10 minutes. After the centrifugation is complete, transfer 50 µL of the supernatant to 200 µL of H2O for dilution for LC-MS/MS analysis.
(§8) Calculations of t½ and CLint are performed using the first-order kinetic equations: […]
(§9) where k represents the elimination constant, calculated from a log-linear plot of percentage remaining versus time. t½ represents half-life. Cprotein is the concentration of liver microsomes.

[5] = In vitro metabolic stability in liver microsomes, rat; assay type: in vitro ADME; details: for microsomal CLint at 2 µM: pH 7.3, read-out: CLint (µL/min/mg protein) rat
Description: as §2, §3, §4, §5, §6, §7, §8, §9

[6] = In vitro metabolic stability in liver microsomes, mouse; assay type: in vitro ADME; details: for microsomal CLint at 2 µM: pH 7.3, read-out: CLint (µL/min/mg protein) mouse
[7] = In vitro metabolic stability in liver microsomes, monkey; assay type: in vitro ADME; details: for microsomal CLint at 2 µM: pH 7.3, read-out: CLint (µL/min/mg protein) monkey
[8] = In vitro metabolic stability in liver microsomes, dog; assay type: in vitro ADME; details: for microsomal CLint at 2 µM: pH 7.3
[9] = Homo sapiens, MV4-11, cultured for 120 hrs
[10] = Homo sapiens, NCI-H358, ultra-low adsorption plate

Chain of SHP2 (Q06124 whole entry): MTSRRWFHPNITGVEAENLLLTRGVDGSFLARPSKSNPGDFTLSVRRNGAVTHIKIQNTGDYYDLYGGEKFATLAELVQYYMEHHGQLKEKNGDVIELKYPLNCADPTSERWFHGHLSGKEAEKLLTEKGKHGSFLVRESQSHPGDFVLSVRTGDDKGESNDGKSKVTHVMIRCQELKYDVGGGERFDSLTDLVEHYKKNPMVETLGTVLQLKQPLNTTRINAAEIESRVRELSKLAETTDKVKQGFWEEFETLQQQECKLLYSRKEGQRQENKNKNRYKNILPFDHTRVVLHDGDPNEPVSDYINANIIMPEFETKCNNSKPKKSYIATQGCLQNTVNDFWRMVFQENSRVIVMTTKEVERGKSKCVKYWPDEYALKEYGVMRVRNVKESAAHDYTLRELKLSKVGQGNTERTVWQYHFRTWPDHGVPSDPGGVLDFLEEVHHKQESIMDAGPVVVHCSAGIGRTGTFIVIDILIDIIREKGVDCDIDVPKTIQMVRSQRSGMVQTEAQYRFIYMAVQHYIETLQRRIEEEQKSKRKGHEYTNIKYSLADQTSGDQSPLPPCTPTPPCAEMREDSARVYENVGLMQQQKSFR

## N[C@@H]1c2ccccc2CC12CCN(c1ncc(C#CCOc3cccc(C(F)(F)F)c3)nc1CO)CC2 [Compound A13]
[1]
  IC50: 5.8 nM
[2]; cultured for 120 hrs
  IC50: 18 nM
[3]; ultra-low adsorption plate
  IC50: 28 nM
[4]
  CLint (µL/min/mg protein) human: 6.3 µL/min/mg protein
[5]
  CLint (µL/min/mg protein) rat: 2.4 µL/min/mg protein
[6]
  CLint (µL/min/mg protein) mouse: 6.6 µL/min/mg protein
[7]
  CLint (µL/min/mg protein) monkey: 2.6 µL/min/mg protein
[8]; dog liver microsomes
  CLint (µL/min/mg protein) dog: 0.9 µL/min/mg protein

## NC(=O)c1ccc(OCC#Cc2cnc(N3CCC4(CC3)Cc3ccccc3[C@H]4N)c(CO)n2)cc1 [Compound A17, (S)-4-((3-(5-(1-amino-1,3-dihydrospiro[indene-2,4′-piperidine]-1′-yl)-6-(hydroxymethyl)pyrazin-2-yl)prop-2-yn-1-yl)oxy) benzamide]
[1]
  IC50: 2.4 nM
[2]; cultured for 120 hrs
  IC50: 1 nM
[3]; ultra-low adsorption plate
  IC50: 1.5 nM
[4]
  CLint (µL/min/mg protein) human: 0.4 µL/min/mg protein
[5]
  CLint (µL/min/mg protein) rat: 15.9 µL/min/mg protein
[6]
  CLint (µL/min/mg protein) mouse: 12.0 µL/min/mg protein
[7]
  CLint (µL/min/mg protein) monkey: 5.0 µL/min/mg protein
[8]; dog liver microsomes
  CLint (µL/min/mg protein) dog: 10.6 µL/min/mg protein

## N[C@@H]1c2ccccc2CC12CCN(c1ncc(C#CCOc3ccc4c(c3)NC(=O)CC4)nc1CO)CC2 [Compound A22]
[1]
  IC50: 4.6 nM
[2]; cultured for 120 hrs
  IC50: 2.9 nM
[3]; ultra-low adsorption plate
  IC50: 2.3 nM
[4]
  CLint (µL/min/mg protein) human: 1.6 µL/min/mg protein
[5]
  CLint (µL/min/mg protein) rat: 20.7 µL/min/mg protein
[6]
  CLint (µL/min/mg protein) mouse: 13.2 µL/min/mg protein
[7]
  CLint (µL/min/mg protein) monkey: 21.0 µL/min/mg protein
[8]; dog liver microsomes
  CLint (µL/min/mg protein) dog: 13.6 µL/min/mg protein

## Nc1cc(OCC#Cc2cnc(N3CCC4(CC3)Cc3ccccc3[C@H]4N)c(CO)n2)ccn1 [Compound A26, (S)-(3-(1-amino-1,3-dihydrospiro [indene-2,4′-piperidine]-1′-yl)-6-(3-((2-Aminopyridin-4-yl)oxy)prop-1-yn-1-yl)pyrazin-2-yl) methanol]
[1]
  IC50: 1.6 nM
[2]; [9]
  IC50: 1.8 nM
[3]; [10]
  IC50: 5.2 nM
[4]
  microsomal CLint at 2 µM: 2.2 µL/min/mg
[5]
  microsomal CLint at 2 µM: 9 µL/min/mg
[6]
  microsomal CLint at 2 µM: 9.8 µL/min/mg
[7]
  microsomal CLint at 2 µM: 6.3 µL/min/mg
[8]; dog, microsomes
  microsomal CLint at 2 µM: 1.2 µL/min/mg

## NC(=O)c1cccc(OCC#Cc2cnc(N3CCC4(CC3)Cc3ccccc3[C@H]4N)c(CO)n2)c1 [Compound A27, (S)-3-((3-(5-(1-amino-1,3-dihydrospiro[indene-2,4′-piperidine]-1′-yl)-6-(hydroxymethyl)pyrazin-2-yl)prop-2-yn-1-yl)oxy)benzamide]
[1]
  IC50: 1.9 nM
[2]; [9]
  IC50: 1.4 nM
[3]; [10]
  IC50: 1.5 nM
[4]
  microsomal CLint at 2 µM: 4 µL/min/mg
[5]
  microsomal CLint at 2 µM: 7.5 µL/min/mg
[6]
  microsomal CLint at 2 µM: 17.7 µL/min/mg
[7]
  microsomal CLint at 2 µM: 15.9 µL/min/mg
[8]; dog, microsomes
  microsomal CLint at 2 µM: 4.8 µL/min/mg

## N[C@@H]1c2ccccc2CC12CCN(c1ncc(C#CCNC(=O)c3ccccc3)nc1CO)CC2 [Compound A45]
[1]
  IC50: 4.7 nM
[2]; cultured for 120 hrs
  IC50: 20 nM
[3]; ultra-low adsorption plate
  IC50: 40 nM
[4]
  CLint (µL/min/mg protein) human: 5.2 µL/min/mg protein
[5]
  CLint (µL/min/mg protein) rat: 7.9 µL/min/mg protein
[6]
  CLint (µL/min/mg protein) mouse: 6.3 µL/min/mg protein
[7]
  CLint (µL/min/mg protein) monkey: 3.2 µL/min/mg protein
[8]; dog liver microsomes
  CLint (µL/min/mg protein) dog: 9.6 µL/min/mg protein

## NC(=O)c1ccc(OCC#Cc2cnc(N3CCC4(CC3)Cc3ccccc3[C@H]4N)c(CO)n2)cc1F [Compound A50, (S)-4-((3-(5-(1-amino-1,3-dihydrospiro[indene-2,4′-piperidin]-1′-yl)-6-(hydroxymethy 1)pyrazin-2-yl)prop-2-yn-1-yl)oxy)-2-fluorobenzamide]
[1]
  IC50: 1.7 nM
[2]; cultured for 120 hrs
  IC50: 2.2 nM
[3]; ultra-low adsorption plate
  IC50: 3.3 nM
[4]
  CLint (µL/min/mg protein) human: 7.4 µL/min/mg protein
[5]
  CLint (µL/min/mg protein) rat: 11.4 µL/min/mg protein
[6]
  CLint (µL/min/mg protein) mouse: 3.1 µL/min/mg protein
[7]
  CLint (µL/min/mg protein) monkey: 5.9 µL/min/mg protein
[8]; dog, microsomes
  CLint (µL/min/mg protein) dog: 5.2 µL/min/mg protein

## N[C@@H]1c2ccccc2CC12CCN(c1ncc(C#CCOc3ccc4c(c3)CNC4=O)nc1CO)CC2 [Compound A51, (S)-5-((3-(5-(1-amino-1,3-dihydrospiro[indene-2,4′-piperidin]-1′-yl)-6-(hydroxymethy 1)pyrazin-2-yl)prop-2-yn-1-yl)oxy)isoindolin-1-one]
[1]
  IC50: 2.4 nM
[2]; cultured for 120 hrs
  IC50: 1 nM
[3]; ultra-low adsorption plate
  IC50: 0.8 nM
[4]
  CLint (µL/min/mg protein) human: 9.9 µL/min/mg protein
[5]
  CLint (µL/min/mg protein) rat: 12.5 µL/min/mg protein
[6]
  CLint (µL/min/mg protein) mouse: 16.7 µL/min/mg protein
[7]
  CLint (µL/min/mg protein) monkey: 26.2 µL/min/mg protein
[8]; dog, microsomes
  CLint (µL/min/mg protein) dog: 22.2 µL/min/mg protein

## NC(=O)c1ccc(OCC#Cc2cnc(N3CCC4(CC3)Cc3ccccc3[C@H]4N)c(CO)n2)cc1Cl [Compound A54, (S)-4-((3-(5-(1-amino-1,3-dihydrospiro[indene-2,4′-piperidin]-1′-yl)-6-(hydroxymethyl)pyrazin-2-yl)prop-2-yn-1-yl)oxy)-2-chlorobenzamide]
[1]
  IC50: 0.7 nM
[2]; [9]
  IC50: 1.6 nM
[3]; [10]
  IC50: 2.2 nM
[4]
  microsomal CLint at 2 µM: 12.1 µL/min/mg
[5]
  microsomal CLint at 2 µM: 12.8 µL/min/mg
[6]
  microsomal CLint at 2 µM: 10.4 µL/min/mg
[7]
  microsomal CLint at 2 µM: 13.7 µL/min/mg
[8]; dog, microsomes
  microsomal CLint at 2 µM: 12.8 µL/min/mg

## CN(CC#Cc1cnc(N2CCC3(CC2)Cc2ccccc2[C@H]3N)c(CO)n1)c1ccc(C(N)=O)cc1 [Compound A55, (S)-4-((3-(5-(1-amino-1,3-dihydrospiro[indene-2,4′-piperidin]-1′-yl)-6-(hydroxymethyl)pyrazin-2-yl)prop-2-yn-1-yl)(methyl)amino)benzamide]
[1]
  IC50: 2.7 nM
[2]; [9]
  IC50: 9.6 nM
[3]; [10]
  IC50: 26 nM
[4]
  microsomal CLint at 2 µM: 14.7 µL/min/mg
[5]
  microsomal CLint at 2 µM: 24.7 µL/min/mg
[6]
  microsomal CLint at 2 µM: 14.3 µL/min/mg
[7]
  microsomal CLint at 2 µM: 20 µL/min/mg
[8]; dog, microsomes
  microsomal CLint at 2 µM: 20.7 µL/min/mg

## N[C@@H]1c2ccccc2CC12CCN(c1ncc(C#CCNc3ncco3)nc1CO)CC2 [Compound A60]
[1]
  IC50: 1.6 nM
[2]; cultured for 120 hrs
  IC50: 13 nM
[3]; ultra-low adsorption plate
  IC50: 41 nM
[4]
  CLint (µL/min/mg protein) human: 9.9 µL/min/mg protein
[5]
  CLint (µL/min/mg protein) rat: 10.4 µL/min/mg protein
[6]
  CLint (µL/min/mg protein) mouse: 15.1 µL/min/mg protein
[7]
  CLint (µL/min/mg protein) monkey: 16.9 µL/min/mg protein
[8]; dog liver microsomes
  CLint (µL/min/mg protein) dog: 10.8 µL/min/mg protein

## N[C@@H]1c2ccccc2CC12CCN(c1ncc(C#CCOc3ccc(C(O)C(F)(F)F)cc3)nc1CO)CC2 (stereo partly drawn) [Compound A80, 1-(4-((3-(5-((S)-1-amino-1,3-dihydrospiro[indene-2,4′-piperidin]-1′-yl)-6-(hydroxymethyl)pyrazin-2-yl)prop-2-yn-1-yl)oxy)phenyl)-2,2,2-trifluoroethane-1-ol]
[1]
  IC50: 2.8 nM
[2]; [9]
  IC50: 10.4 nM
[4]
  microsomal CLint at 2 µM: 2.7 µL/min/mg
[5]
  microsomal CLint at 2 µM: 14 µL/min/mg
[6]
  microsomal CLint at 2 µM: 9 µL/min/mg
[7]
  microsomal CLint at 2 µM: 1 µL/min/mg
[8]; dog, microsomes
  microsomal CLint at 2 µM: 3.1 µL/min/mg

## NC(=O)Cn1cc(OCC#Cc2cnc(N3CCC4(CC3)Cc3ccccc3[C@H]4N)c(CO)n2)cn1 [Compound A82, (S)-2-(4-((3-(5-(1-amino-1,3-dihydrospiro[indene-2,4′-piperidin]-1′-yl)-6-(hydroxymethyl)pyrazin-2-yl)prop-2-yn-1-yl)oxy)-1H-pyrazol-1-yl)acetamide]
[2]; [9]
  IC50: 9 nM
[3]; [10]
  IC50: 40 nM
[4]
  microsomal CLint at 2 µM: 8.6 µL/min/mg
[5]
  microsomal CLint at 2 µM: 5.3 µL/min/mg
[6]
  microsomal CLint at 2 µM: 10.5 µL/min/mg
[7]
  microsomal CLint at 2 µM: 4.5 µL/min/mg
[8]; dog, microsomes
  microsomal CLint at 2 µM: 3.9 µL/min/mg
